Values quoted from earlier work, collected in US5258406A, “Sulfonimidamides” (priority 1992, dated 1993).

Conditions: Johnson et al., J. Org. Chem. 44, 2055 (1979); cited from earlier work

Which “activity in an antidiabetic screen” value does the source give for `CCCCNC(=O)NS(=N)(=O)c1ccc(C)cc1` (stereo not shown) [compound 16, N-butyl-N'-(p-toluenesulfonimidoyl)urea] here?
The value was “inactive”.
